Reference: patent US10045529B2, “Quat cleaner with glycerin ether ethoxylates” (Ecolab USA Inc., priority 2012, dated 2018)

Experiments:
[1] = Glewwe foam meter foam height test; format: physicochemical; conditions: 50 ppm
Source text: Foam testing was completed for the ethoxylated glycerine ether solfactants in comparison to commercially-available ethoxylated alcohols using a Glewwe foam meter. A Glewwe foam meter provides a dynamic foam test rather than a static test, which is considered more appropriate for simulation of industrial conditions. The equipment and general procedure for the Glewwe form test is described in U.S. Pat. Nos. 3,899,387 and 5,447,648, which are herein incorporated by reference in its entirety. The foam meter itself consists of a thermostated reservoir and a pump to recirculate the aqueous medium with foaming tendencies. The foam developed by the action of the aqueous stream impinging on the surface in the reservoir causes foam formation.
The foam heights of the tested compositions were determined using the following method. First 3000 mL of city water (e.g. 17 gpg) was filled into the Glewwe cylinder. The pump was turned on, pressure adjusted to 6 psi, and heated water to 140° F. The commercially available surfactant (or the solfactant according to the invention) was added at 50 ppm in the cylinder and the timer was started. Foam height was recorded at 1 minute and 5 minutes. After 5 minutes the pump was stopped and foam stability characteristics were observed. The cylinder was then drained, rinsed, and the methods repeated.

[2] = Tergotometer detergency test on EMPA soiled swatches
Method: Laundry detergent compositions using 500 ppm sodium hydroxide (e.g. caustic) and the indicated conventional Surfonic® surfactant or the glycerin ether ethoxylate solfactant according to the invention were evaluated. A tergotometer test procedure was employed to measure detergency of test compositions according to the invention. A tergotometer along with 500 mL pots and water bath were employed. First, unwashed swatches from the lot numbers to be used in the test are read on the Konica Minolta Spectrophotometer model CM-3600d to establish the average initial (before washing) L value. A sampling of each swatch type is used. The desired wash temperature is programmed into the Tergotometer and its water bath is allowed to heat up to that temperature. 500 mL of the desired water type is added to each Tergotometer pot and allowed to equilibrate to the desired temperature.
The following standard, commercially available (EMPA) soiled swatches were used for baseline testing in the Examples, as shown in Table 9.
The test detergent compositions are weighed out and added to the Tergotometer pots. Various detergent compositions as shown in Tables 10-11 were employed under varying water conditions, including 5 grain water (Table 10) and 17 grain water (Table 11).
The detergent systems were agitated for 10 minutes to mix and dissolve in the water sources. The agitation/mixing speed RPM was adjusted to 200. The temperature of the detergent compositions dissolved in water was 60° C., unless indicated otherwise in the Figures/Examples set forth below. The swatches are added quickly to their respective pots in a left to right sequence in order to minimize differences in exposure time to the detergent systems. A wash run is completed for at least 10 minutes. At the end of the run, the swatches are removed from the pots quickly in a left to right sequence using a forceps and are transferred into 500 mL-1 liter of cool water to rinse. After rinsing with cold tap water, excess water from the swatches was removed by squeezing the swatches. The process was repeated with rinsing and squeezing excess water at least 2 more times. The swatches were air dried on a visa napkin or paper towel on the lab bench.
The swatches were then read on the HunterLab Color Quest and calculate % soil removal (i.e. whiteness) from the difference between the initial (before washing) L value and the final L value (after washing). Percent Soil Removal=(L after−L initial)/(96−L initial)*100 is represented as L*.

[3] = Gel formation with water; format: physicochemical
Source text: The low foam profiles and low viscosity of the glycerin ether ethoxylate solfactants as shown in Examples 5 and 6 were further compared to gel curves of conventional ethoxylated alcohols (e.g. Tomadol surfactants). […]

[4] = Differential Scanning calorimetry (DSC) freeze or melt point; format: physicochemical
Method: Differential Scanning calorimetry (DSC) was run on the various 2-Ethyl Hexanol Glycerin Ether Ethoxylate solfactants set forth in Table 1. The DSC evaluated additional properties of the exemplary set of novel solfactants, namely the freezing point of the molecules. The DSC utilized can be measured down to minus 80° C. for determining a freeze or melt points of a liquid. […] This is distinct form conventional alcohol ethoxylates (having equivalent degrees of ethoxylation) which have very high melt points. For example, many conventional alcohol ethoxylate surfactants have melt points at room temperature or higher, resulting in the compositions being solids at room temperature. In addition, as one skilled in the art ascertains, the more ethyl oxide you add to a standard alcohol ethoxylate, the higher the melt point. This is distinct from the solfactants according to the invention, including the 2-Ethyl Hexanol Glycerin Ether Ethoxylate solfactants set forth in Table 1. For example, Tomadol 24-9 is a solid at room temperature, whereas the equivalent 2EHGE 9 mole is a liquid at room temperature.

[5] = Cloud point of solfactants in various solutions; format: physicochemical; conditions: 1% in 10% NaCl
Source text: Various 2-Ethyl Hexanol Glycerin Ether Ethoxylate solfactants were produced using ethoxylation by a KOH Catalyst.
Further the cloud point data for the solfactants in various solutions is shown. The cloud point temperatures show the temperature above which a surfactant-rich phase separates from an aqueous solution. There is a clear relationship between the cloud point and the average EO content of the glycerin ether ethoxylate; as the ethylene oxide content of the solfactant increases, the cloud point and water solubility increase. As the carbon number on the molecule increases, a greater number of moles of ethylene oxide are required to be added to the molecule to retain the same cloud point.

Q: Which results are given for “2-Ethyl Hexanol Glycerin Ether Ethoxylate (9 moles) [2EHGE (9 EO)]”?
A: OBSERVATIONS (foam stability after pump stopped) ([1]; after 5 minutes pump stopped): Unstable - Breaks; Foam Height (in) @ 1 MIN ([1]; city water 17 gpg, 140° F., 6 psi, 1 minute): 4.5 in; Foam Height (in) @ 5 MIN ([1]; city water 17 gpg, 140° F., 6 psi, 5 minutes): 4.5 in; % removal EMPA 116 ([2]; 5 gpg water, 50 ppm, 500 ppm sodium hydroxide, 60° C., EMPA 116 (Blood, milk and ink, Cotton)): 33%; % removal EMPA 101 ([2]; 5 gpg, 50 ppm, EMPA 101 (olive oil/carbon black, Cotton)): 32%; % removal EMPA 104 ([2]; 5 gpg, 50 ppm, EMPA 104 (olive oil/carbon black, Cotton blend)): 38%; % removal EMPA 106 ([2]; 5 gpg, 50 ppm, EMPA 106 (mineral oil, Cotton)): 55.18%; % removal EMPA 111 ([2]; 5 gpg, 50 ppm, EMPA 111 (Pig blood, Cotton)): 48%; % removal EMPA 114 ([2]; 5 gpg, 50 ppm, EMPA 114 (Red wine, Cotton)): 2%; % removal EMPA 101 ([2]; 5 gpg, 100 ppm, EMPA 101): 29%; % removal EMPA 104 ([2]; 5 gpg, 100 ppm, EMPA 104): 24%; % removal EMPA 106 ([2]; 5 gpg, 100 ppm, EMPA 106): 50.14%; % removal EMPA 111 ([2]; 5 gpg, 100 ppm, EMPA 111): 54%; % removal EMPA 114 ([2]; 5 gpg, 100 ppm, EMPA 114): 0%; % removal EMPA 116 ([2]; 5 gpg, 100 ppm, EMPA 116): 25%; % removal EMPA 101 ([2]; 17 gpg, 50 ppm, EMPA 101): 21%; % removal EMPA 104 ([2]; 17 gpg, 50 ppm, EMPA 104): 19%; % removal EMPA 106 ([2]; 17 gpg, 50 ppm, EMPA 106): 9%; % removal EMPA 111 ([2]; 17 gpg, 50 ppm, EMPA 111): 35%; % removal EMPA 114 ([2]; 17 gpg, 50 ppm, EMPA 114): 1%; % removal EMPA 116 ([2]; 17 gpg, 50 ppm, EMPA 116): 21%; % removal EMPA 101 ([2]; 17 gpg, 100 ppm, EMPA 101): 20%; % removal EMPA 104 ([2]; 17 gpg, 100 ppm, EMPA 104): 16%; % removal EMPA 106 ([2]; 17 gpg, 100 ppm, EMPA 106): 10%; % removal EMPA 111 ([2]; 17 gpg, 100 ppm, EMPA 111): 32%; % removal EMPA 114 ([2]; 17 gpg, 100 ppm, EMPA 114): 1%; % removal EMPA 116 ([2]; 17 gpg, 100 ppm, EMPA 116): 20%; Gel Formation ([3]; 20%/80%): None; Gel Formation ([3]; 30%/70%): None; Gel Formation ([3]; 40%/60%): None; Gel Formation ([3]; 50%/50%): None; Gel Formation ([3]; 60%/40%): None; Gel Formation ([3]; 70%/30%): None; Gel Formation ([3]; 80%/20%): None; Gel Formation ([3]; 90%/10%): None; Gel Formation ([3]; Glycerin Ether Ethoxylate %/Water % 10%/90%): None; Physical state at room temperature [4]: liquid; Cloud Point Data 1% in 10% NaCl [5]: 95 °C
